Assay results from patent US20090142364A1, “Method for finding novel peptide immunostimulatory adjuvants, compositions and methods of use” (priority 2007, published 2009).
“Also recorded” adds a separate entry of the source. Where a SMILES comes first, the peptide text is derived from it.

Legend:
E. coli strain TG-1 = test: Survival of Balb/c mice infected with E. coli strain TG-1; type: in vivo, mouse; conditions: 2 ng i.p., 6 mice at 0 h
Protocol: Groups of Balb/c mice (20-22 g) were administered i.p. with RN-peptide, or GMDP, or saline (control), and then infected i.p. with E. coli strain TG-1 cells. Two doses of E. coli cells were used—1×10^8 (LD50) and 2×10^8 (LD100). Mice were infected one day (experiment A) or seven days (experiment B) after injection of the immunomodulator. Survival of mice was assessed during three days. Results showing that RN-peptide protects mice from lethal doses of E. coli infections (Table 4).

[1] = system: antibody response to N. meningitidis serogroup C capsular polysaccharide; test: Antibody response to N. meningitidis serogroup C capsular polysaccharide, passive agglutination test; type: in vivo, CBA mice; conditions: 0.2 μg capsular polysaccharide i.v.
Protocol: Immunization with capsular polysaccharide of N. meningitidis serogroup C was carried out in CBA mice. Groups of 5 mice were administered i.v. with polysaccharide C (0.2 μg) in saline in the presence of 1-100 μg of RN-peptide. Control mice were immunized with optimal dose (2 μg/mouse) of polysaccharide. Four days later mice were bled from tail vein and the antibody titer was evaluated by passive agglutination test using commercial erythrocyte diagnostic kit.

E. coli strain K12 = test: Anti-infective action: survival of Balb/c mice infected with E. coli strain K12; type: in vivo; conditions: 1 ng-10 μg i.p. 7 days before infection, LD100 and LD50
Protocol: Groups of Balb/c mice (20-22 g) were administered i.p. with different doses of RN-peptide (1 ng-10 μg) or GMDP (1 ng-10 μg) in saline. Control mice received saline. […] Survival of mice was assessed during three days.

[2] = system: antibody response to ovalbumin; test: Adjuvant activity: antibody response to ovalbumin in mice, titer by solid-phase ELISA; type: in vivo, Balb/c mice; conditions: for Adjuvant index / Anti-ovalbumin antibody titer: i.p.
Protocol: To study the adjuvant activity of RN-peptide, Balb/c mice were immunized with ovalbumin in saline in the presence of the RN-peptide, its analogs or GMDP, or without any adjuvant (control). The adjuvant was introduced on first immunization, whereas second immunization was carried out with half dose of OVA without adjuvant.
Adjuvant activity. Groups of 5 Balb/c mice were administered i.p. with 2.5-10 μg ovalbumin (Sigma, USA) per mouse in 200 μl PBS. RN-peptide (0.1-100 μg) or GMDP (1-100 μg) was introduced simultaneously with ovalbumin on first immunization. The second immunization was carried out 28 days later with half dose of ovalbumin (1.25-5.0 μg/200 μl) without adjuvant. Control mice received ovalbumin twice without adjuvant. Three days after the second immunization mice were bled from the tail vein. […] Control mice received polysaccharide without any adjuvant. Five and ten days after immunization mice were bled.
The antibody titer was evaluated by solid-phase ELISA as described by Douillard and Hoffman (1983) Enzyme-linked immunosorbent assay for screening monoclonal antibody production using enzyme-labeled second antibody. The antigen (ovalbumin or polysaccharide), 5 μg/ml in bicarbonate buffer, pH 8.6 (100 μl), was introduced into wells of 96-well microtiter plate. Incubation was carried out overnight at 4° C. The plate was washed 5 times with PBS and 5 times with PBS/0.1% Tween-20 (PBS-T). Remaining binding sites were blocked with 1% gelatin in PBS (2 h, room temperature). After washing 100 μl of mouse serum (1:100 dilution) was added, and serial three-fold dilutions were made. Bound antibodies were visualized by incubation with Horse-Radish-Peroxidase (HRP)-conjugated rabbit anti-mouse antibodies and OPD as the chromogenic substrate.

[3] = system: Balb/c mice peritoneal mononuclear cells (PMC); test: Ia-antigen-inducing effect, flow cytometry, peritoneal mononuclear cells; type: cell-based, mouse; conditions: at optimal dose, overnight treatment
Protocol: We studied the Ia-antigen-inducing activity of RN-peptide by stimulation in vitro of murine peritoneal macrophages. Flow cytometry was used to assess Ia-antigen expression. […] The pyrogenicity of the peptide was studied in Wistar rats. […] The dynamics of alteration of rectal temperature were monitored during 2.5 h.
Balb/c mice peritoneal mononuclear cells (PMC) were isolated by Histopaque density gradient centrifugation. PMC or WEHI-3 cells were incubated with RN-peptide (0.1-10 μg/ml) or GMDP (positive control) or saline (negative control) in RPMI 1640 medium, supplemented with 5% fetal calf serum upon rotary mixing for 18 h at 37° C. Cells were stained on ice bath with MKD6 anti-Ia^d mAb (supernatant from the in vitro culture, 1:10 dilution) and FITC-labeled anti-mouse immunoglobulin (Sigma, USA, 1:300 dilution), and then with phycoerythrin-labeled F4/80 mAb (Caltag, USA, 0.2 μg/100 μl). Ia antigen expression was assessed by flow cytometry using EPICS “Elite” (Coulter, USA).

[4] = Experiment A (infected one day after injection), 1 × 10^8 E. coli cells (LD50)
[5] = Experiment A (infected one day after injection), 2 × 10^8 E. coli cells (LD100)
[6] = Experiment B (infected seven days after injection), 1 × 10^8 E. coli cells (LD50)
[7] = Experiment B (infected seven days after injection), 2 × 10^8 E. coli cells (LD100)
[8] = adjuvant 0.1 μg, ovalbumin 2.5 μg then 1.25 μg
[9] = adjuvant 1 μg, ovalbumin 2.5 μg then 1.25 μg
[10] = adjuvant 1 μg, ovalbumin 10 μg then 5 μg
[11] = adjuvant 10 μg, ovalbumin 2.5 μg then 1.25 μg
[12] = adjuvant 10 μg, ovalbumin 10 μg then 5 μg
[13] = adjuvant 100 μg, ovalbumin 2.5 μg then 1.25 μg
[14] = adjuvant 100 μg, ovalbumin 10 μg then 5 μg

## CC[C@H](C)[C@H](NC(=O)[C@H](CCCCN)NC(=O)[C@H](C)NC(=O)[C@H](Cc1c[nH]cn1)NC(=O)[C@H](Cc1ccc(O)cc1)NC(=O)[C@H](CCCNC(=N)N)NC(=O)[C@@H]1CCCN1C(=O)[C@@H]1CCCN1C(=O)[C@@H](NC(=O)[C@@H](N)CCCNC(=N)N)C(C)C)C(=O)N[C@@H](CO)C(=O)N1CCC[C@H]1C(=O)N[C@@H](CCSC)C(=O)N[C@H](C(=O)N[C@@H](CC(N)=O)C(=O)O)C(C)C [RN-peptide, RVPPRYHAKISPMVN] (H-RVPPRYHAKISPMVN-OH)
E. coli strain TG-1; [4]
  Number of survivors: 5
  surviving mice, 24 hours after infection: 6
  surviving mice, 28 hours after infection: 5
  surviving mice, 72 hours after infection: 5
E. coli strain TG-1; [5]
  Number of survivors: 2
  surviving mice, 24 hours after infection: 5
  surviving mice, 28 hours after infection: 5
  surviving mice, 72 hours after infection: 2
E. coli strain TG-1; [6]
  Number of survivors: 4
  surviving mice, 24 hours after infection: 6
  surviving mice, 28 hours after infection: 5
  surviving mice, 72 hours after infection: 4
E. coli strain TG-1; [7]
  Number of survivors: 1
  surviving mice, 24 hours after infection: 3
  surviving mice, 28 hours after infection: 3
  surviving mice, 72 hours after infection: 1
[1]
  anti-polysaccharide antibody titer (in words): increased considerably
E. coli strain K12
  protection from E. coli infection (in words): substantial protection; also recorded: substantial anti-infective mode of action
[2]; 2.5 μg OVA
  adjuvant dose of highest response: 10 µg
[2]; 100 μg/mouse
  anti-ovalbumin antibody titer (in words): diminished
[2]; [8]
  Adjuvant index: 0.92 ± 0.04
  Anti-ovalbumin antibody titer: 2250 ± 100
[2]; [9]
  Adjuvant index: 1.75 ± 0.06
  Anti-ovalbumin antibody titer: 4300 ± 150
[2]; [10]
  Adjuvant index: 7.3 ± 0.08
  Anti-ovalbumin antibody titer: 43500 ± 400
[2]; [11]
  Adjuvant index: 7.55 ± 0.06
  Anti-ovalbumin antibody titer: 19000 ± 200
[2]; [12]
  Adjuvant index: 2.6 ± 0.05
  Anti-ovalbumin antibody titer: 15700 ± 280
[2]; [13]
  Adjuvant index: 0.8 ± 0.008
  Anti-ovalbumin antibody titer: 2000 ± 20
[2]; [14]
  Adjuvant index: 0.9 ± 0.03
  Anti-ovalbumin antibody titer: 5400 ± 200
[2]; first immunization with 5-10 μg of OVA
  adjuvant dose at which antibody titer peaked: 1 μg/mouse
[2]; ovalbumin in mice
  adjuvant activity (in words): strongly enhanced antibody response
[2]; under optimal conditions
  anti-ovalbumin antibody titer relative to the titer of control serum: 6.5-7.5 times
[3]
  increase in Ia-positive cell number: 10%
